Data: US6737383B1, “Herbicidal oxadiazolidines” (priority 1999, dated 2004)

Tests used:
bedstraw = assay: Test B pre/postemergence bedstraw; format: in vivo, Galium aparine
In short: (§1)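 Test chemicals in a non-phytotoxic solvent mixture with surfactant were sprayed preemergence onto planted seeds and postemergence onto plants 2 to 18 cm tall (1- to 4-leaf stage). After twelve to sixteen days in a greenhouse, injury was visually rated against untreated controls from 0 (no effect) to 10 (complete control).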

blackgrass = assay: Test B pre/postemergence blackgrass; format: in vivo, Alopecurus myosuroides
In short: as §1

surinam grass = assay: Test B pre/postemergence surinam grass; format: in vivo, Brachiaria decumbens
In short: as §1

cocklebur = assay: Test B pre/postemergence cocklebur; format: in vivo, Xanthium strumarium
In short: as §1

giant foxtail = assay: Test B pre/postemergence giant foxtail; format: in vivo, Setaria faberii
In short: as §1

morningglory = assay: Test B pre/postemergence morningglory; format: in vivo, Ipomoea hederacea
In short: as §1

pigweed = assay: Test B pre/postemergence pigweed; format: in vivo, Amaranthus retroflexus
In short: as §1

rape = assay: Test B pre/postemergence rape; format: in vivo, Brassica napus
In short: as §1

soybean = assay: Test B pre/postemergence soybean; format: in vivo, Glycine max
In short: as §1

sugar beet = assay: Test B pre/postemergence sugar beet; format: in vivo, Beta vulgaris
In short: as §1

wheat = assay: Test B pre/postemergence wheat; format: in vivo, Triticum aestivum
In short: as §1

wild oat = assay: Test B pre/postemergence wild oat; format: in vivo, Avena fatua
In short: as §1

purple nutsedge = assay: Test B pre/postemergence purple nutsedge; format: in vivo, Cyperus rotundus
In short: as §1

smallflower flatsedge = assay: Test B flood test smallflower flatsedge; format: in vivo, Cyperus difformis
In short: (§2)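 Read-out is a visual response score from 0 (no effect) to 10 (complete control), assigned by comparison with untreated controls. Treatment was applied at the 2-leaf stage, and plants stayed in the greenhouse for twelve to sixteen days before scoring.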

duck salad = assay: Test B flood test duck salad; format: in vivo, Heteranthera limosa
In short: as §2

bamyardgrass = assay: Test B flood test barnyardgrass; format: in vivo, Echinochloa crus-galli
In short: as §2

[1] = Preemergence, Rate 62 g/ha, scale of 0 to 10 where 0 is no effect and 10 is complete control
[2] = Preemergence, Rate 250 g/ha, scale of 0 to 10 where 0 is no effect and 10 is complete control
[3] = Preemergence, Rate 500 g/ha, scale of 0 to 10 where 0 is no effect and 10 is complete control
[4] = Rate 62 g/ha, Postemergence, scale 0 to 10 (0 no effect, 10 complete control)
[5] = Rate 125 g/ha, Postemergence, scale of 0 to 10 where 0 is no effect and 10 is complete control
[6] = Rate 250 g/ha, Postemergence, scale of 0 to 10 where 0 is no effect and 10 is complete control
[7] = Rate 500 g/ha, Postemergence, scale 0 to 10, 0 no effect, 10 complete control
[8] = Pre-emergence, Rate 1000 g/ha, scale 0 to 10 (0 no effect, 10 complete control)
[9] = Rate 62 g/ha, headed Pre-emergence (flood test species), scale 0 to 10 (0 no effect, 10 complete control)
[10] = Rate 125 g/ha, Pre-emergence, flood test species, scale 0 to 10 where 0 is no effect and 10 is complete control
[11] = Rate 250 g/ha, Pre-emergence, flood-test species, scale 0 to 10, 0 is no effect, 10 is complete control
[12] = Rate 500 g/ha, Pre-emergence, flood test species, scale 0 to 10 (0 no effect, 10 complete control)

SMILES: CC(C)N(C(=O)n1oc(=O)n(C2CCOCC2)c1=O)c1ccc(F)cc1 [Compound 310]
- Bedstraw plant response rating (bedstraw; [1]): 2
- Bedstraw plant response rating (0 to 10 scale) (bedstraw; Preemergence, Rate 125 g/ha): 3
- Bedstraw plant response rating (bedstraw; [2]): 5
- Bedstraw plant response rating (bedstraw; [3]): 10
- Bedstraw plant response rating (bedstraw; [4]): 4
- Bedstraw plant response rating (bedstraw; [5]): 4
- Plant response rating, Bedstraw (bedstraw; [6]): 7
- Bedstraw plant response rating (bedstraw; [7]): 5
- Blackgrass plant response rating (blackgrass; [1]): 10
- Blackgrass plant response rating (0 to 10 scale) (blackgrass; Preemergence, Rate 125 g/ha): 10
- Blackgrass plant response rating (blackgrass; [2]): 10
- Blackgrass plant response rating (blackgrass; [3]): 10
- Blackgrass plant response rating (blackgrass; [4]): 5
- Blackgrass plant response rating (blackgrass; [5]): 7
- Plant response rating, Blackgrass (blackgrass; [6]): 9
- Blackgrass plant response rating (blackgrass; [7]): 9
- B. signalgrass plant response rating (surinam grass; [1]): 4
- B. signalgrass plant response rating (0 to 10 scale, 0 is no effect, 10 is complete control) (surinam grass; Preemergence, Rate 125 g/ha): 4
- B. signalgrass plant response rating (surinam grass; [2]): 7
- B. signalgrass plant response rating (surinam grass; [3]): 8
- B. signalgrass plant response rating (surinam grass; [4]): 2
- B. signalgrass plant response rating (surinam grass; [5]): 3
- Plant response rating, B. signalgrass (surinam grass; [6]): 7
- B. signalgrass plant response rating (surinam grass; [7]): 7
- Cocklebur plant response rating (cocklebur; [1]): 0
- Cocklebur plant response rating (0 to 10 scale) (cocklebur; Preemergence, Rate 125 g/ha): 0
- Cocklebur plant response rating (cocklebur; [2]): 2
- Cocklebur plant response rating (cocklebur; [3]): 4
- Cocklebur plant response rating (cocklebur; [4]): 0
- Cocklebur plant response rating (cocklebur; [5]): 0
- Plant response rating, Cocklebur (cocklebur; [6]): 2
- Cocklebur plant response rating (cocklebur; [7]): 7
- Giant foxtail plant response rating (giant foxtail; [1]): 10
- Giant foxtail plant response rating (0 to 10 scale) (giant foxtail; Preemergence, Rate 125 g/ha): 10
- Giant foxtail plant response rating (giant foxtail; [2]): 10
- Giant foxtail plant response rating (giant foxtail; [3]): 10
- Giant foxtail plant response rating (giant foxtail; [4]): 7
- Giant foxtail plant response rating (giant foxtail; [5]): 7
- Plant response rating, Giant foxtail (giant foxtail; [6]): 8
- Morningglory plant response rating (morningglory; [1]): 2
- Morningglory plant response rating (0 to 10 scale) (morningglory; Preemergence, Rate 125 g/ha): 6
- Morningglory plant response rating (morningglory; [2]): 6
- Morningglory plant response rating (morningglory; [3]): 8
- Morningglory plant response rating (morningglory; [4]): 4
- Morningglory plant response rating (morningglory; [5]): 5
- Plant response rating, Morningglory (morningglory; [6]): 7
- Redroot pigweed plant response rating (pigweed; [1]): 9
- Redroot pigweed plant response rating (0 to 10 scale) (pigweed; Preemergence, Rate 125 g/ha): 10
- Redroot pigweed plant response rating (pigweed; [2]): 10
- Redroot pigweed plant response rating (pigweed; [3]): 10
- Redroot pigweed plant response rating (pigweed; [4]): 0
- Redroot pigweed plant response rating (pigweed; [5]): 0
- Plant response rating, Redroot pigweed (pigweed; [6]): 3
- Rape plant response rating (rape; [1]): 5
- Rape plant response rating (0 to 10 scale) (rape; Preemergence, Rate 125 g/ha): 6
- Rape plant response rating (rape; [2]): 10
- Rape plant response rating (rape; [3]): 10
- Rape plant response rating (rape; [4]): 0
- Rape plant response rating (rape; [5]): 0
- Plant response rating, Rape (rape; [6]): 0
- Soybean plant response rating (soybean; [1]): 0
- Soybean plant response rating (0 to 10 scale) (soybean; Preemergence, Rate 125 g/ha): 0
- Soybean plant response rating (soybean; [2]): 2
- Soybean plant response rating (soybean; [3]): 5
- Soybean plant response rating (soybean; [4]): 4
- Soybean plant response rating (soybean; [5]): 4
- Plant response rating, Soybean (soybean; [6]): 4
- Sugarbeets plant response rating (sugar beet; [1]): 5
- Sugarbeets plant response rating (0 to 10 scale) (sugar beet; Preemergence, Rate 125 g/ha): 7
- Sugarbeets plant response rating (sugar beet; [2]): 10
- Sugarbeets plant response rating (sugar beet; [3]): 10
- Sugarbeets plant response rating (sugar beet; [4]): 0
- Sugarbeets plant response rating (sugar beet; [5]): 0
- Plant response rating, Sugarbeets (sugar beet; [6]): 2
- Wheat plant response rating (wheat; [1]): 2
- Wheat plant response rating (0 to 10 scale) (wheat; Preemergence, Rate 125 g/ha): 2
- Wheat plant response rating (wheat; [2]): 5
- Wheat plant response rating (wheat; [3]): 7
- Wheat plant response rating (wheat; [4]): 4
- Wheat plant response rating (wheat; [5]): 4
- Plant response rating, Wheat (wheat; [6]): 6
- Wild oats plant response rating (wild oat; [1]): 8
- Wild oats plant response rating (0 to 10 scale) (wild oat; Preemergence, Rate 125 g/ha): 9
- Wild oats plant response rating (wild oat; [2]): 9
- Wild oats plant response rating (wild oat; [3]): 9
- Wild oats plant response rating (wild oat; [4]): 3
- Wild oats plant response rating (wild oat; [5]): 3
- Plant response rating, Wild oats (wild oat; [6]): 3
- Nutsedge plant response rating (purple nutsedge; [1]): 0
- Nutsedge plant response rating (0 to 10 scale) (purple nutsedge; Preemergence, Rate 125 g/ha): 0
- Nutsedge plant response rating (purple nutsedge; [2]): 10
- Nutsedge plant response rating (purple nutsedge; [3]): 10
- Nutsedge plant response rating (purple nutsedge; [4]): 2
- Nutsedge plant response rating (purple nutsedge; [5]): 3
- Plant response rating, Nutsedge (purple nutsedge; [6]): 6
- S. Flatsedge plant response rating (smallflower flatsedge; [8]): 0
- S. Flatsedge plant response rating (smallflower flatsedge; [9]): 0
- S. Flatsedge plant response rating (smallflower flatsedge; [10]): 0
- S. Flatsedge plant response rating (smallflower flatsedge; [11]): 0
- S. Flatsedge plant response rating (smallflower flatsedge; [12]): 3
- Ducksalad plant response rating (duck salad; [8]): 0
- Ducksalad plant response rating (duck salad; [9]): 0
- Ducksalad plant response rating (duck salad; [10]): 0
- Ducksalad plant response rating (duck salad; [11]): 0
- Ducksalad plant response rating (duck salad; [12]): 3
- Barnyardgrass plant response rating (bamyardgrass; [8]): 6
- Barnyardgrass plant response rating (bamyardgrass; [9]): 0
- Barnyardgrass plant response rating (bamyardgrass; [10]): 0
- Barnyardgrass plant response rating (bamyardgrass; [11]): 4
- Barnyardgrass plant response rating (bamyardgrass; [12]): 7
